In patent publication US20230331679A1, “NAPHTHALENE MONOIMIDE COMPOUNDS AND METHODS THEREOF” (JAWAHARLAL NEHRU CENTRE FOR ADVANCED SCIENTIFIC RESEARCH, priority 2020, published 2023):

How the values were obtained:
PC12 cells = experiment: Rescue of PC12 cells from Aβ42 toxicity (MTT cell viability assay); conditions: for viability at 40 µM: Rattus norvegicus, PC-12, 24 h, read-out: cell viability, PC12 cells, Aβ42 20 µM + compound 40 µM, 24 h; for enhancement in the viability of cells from Aβ toxicity: versus Aβ42 alone (54%)
Method: A 96-well plate was used to culture the cells (15,000 per well) with RPMI media (10% fetal bovine serum (FBS), 5% horse serum (HS,), and 1% pen-strep (PS)) at 37° C. temperature in a 5% CO2 atmosphere. Then the media was exchanged with low serum (2% FBS) media and monomeric Aβ42 was added in the absence and presence of NMI compounds and incubated for 24 h.
The structure-activity relationship (SAR) of NMI compounds towards rescuing PC12 cells from Aβ toxicity was investigated. […] Each experiment was repeated three times (n = 3), and error bars represent the standard deviation (SD).
An Alzheimer’s disease-like environment was mimicked by exposing the cultured PC12 cells to 20 µM of Aβ42 fibrils, which formed cytotoxic aggregation species in the growth media.

α-Syn = α-Syn (Homo sapiens, UniProt P37840); experiment: ThT binding assay, α-Syn aggregation inhibition; type: biochemical
Text: Parkinson’s disease (PD) is a neuronal disorder, mainly affects the motor system. α-Syn is a presynaptic neuronal protein that is linked neuropathologically to PD plays a vital role in the pathogenesis in a number of ways. Self-aggregation of α-Syn to form fibrillar aggregates and these toxic species mediate disruption of cellular homeostasis and cause neuronal death. These toxic aggregates affect various intracellular targets, especially synaptic function. In this context, NMI compounds of the present disclosure were used to study the possible modulation of α-Syn aggregation. The effect of NMI compounds (TGR63 and TGR64) on α-syn (100 µM) aggregation inhibition was studied through ThT binding assay. Experiments were performed at stoichiometric ratios (α-Syn:inhibitor) of 1:1, 1:2, and 1:5 with the fixed concentration of α-Syn at 100 µM.

[1] = target: T1, Aβ42 fibrillar aggregates (Homo sapiens, UniProt P05067); experiment: ThT binding assay, dissolution of preformed Aβ42 fibrils; type: biochemical; conditions: after sixth day of incubation
T1 construct: commercially available β-amyloid peptide (1-42), human; purchased marck (so in the source) PP69-.025 mg
Method: (§1) Monomeric form of Aβ42 peptide was prepared by dissolving 0.25 mg of commercially available β-amyloid peptide (1-42), human (cat: PP69-.025 mg), marck peptide in 250 µL of hexafluoro-2-propanol (HFIP) solvent to obtain a Aβ42 solution. This solution was incubated at room temperature for 1 hour, further to which the HFIP solvent was removed by nitrogen gas flow to obtain the monomeric Aβ42 peptide. To prepare a fibrillar sample of Aβ42 peptide, 0.025 mg of Aβ42 peptide was dissolved in […] of PBS buffer (pH = 7.4; contains 2% of DMSO or 100 mM NaOH) to obtain a monomeric Aβ42 solution and the peptide concentration in this solution was calculated through UV-Visible absorbance studies (ε = 1450 cm^-1 M^-1). The Aβ42 monomeric solution was incubated for 5 days in PBS buffer (pH = 7.4) to allow for the full phase formation of Aβ42 fibrils. The presence of Aβ42 fibrils was further confirmed by ThT assay.
(§2) The ability of NMI compounds (TGR63, TGR64 and TGR65) to prevent Aβ42 fibrillar assembly (inhibition) and to break down the preformed fibrils (dissolution) was evaluated using thioflavin (ThT) binding assay. Aβ42 fibrils at a concentration of 10 µM and its aggregates, were used to study the effect of NMI compounds (TGR63, TGR64 and TGR65) at varying concentrations on both inhibition and dissolution assays. For the inhibition assay, all the NMI compounds (TGR63, TGR64 and TGR65) were added independently to Aβ peptide (10 µM) at 0 h of the experiment, whereas for the aggregates dissolution assay they were added to Aβ42 fibrillar aggregates grown for 2 days. Upon incubating for a predetermined period, Aβ42 inhibitor samples were analyzed using ThT by measuring the fluorescence change at 485 nm as presented in FIG. 1(b) and FIG. 1(c), wherein the error bars represent the standard deviation (SD) of the fluorescence measurement. Fluorescence values were normalized to maximal fluorescence intensity at 485 nm compared to that of the control (Aβ42 with no inhibitor). Experiments were performed at various stoichiometric ratios (Aβ42/inhibitor) of 1:1, 1:2, and 1:5 with a fixed concentration of Aβ42 at 10 µM. Each experiment was repeated three times (n = 3). […] TGR 63 recorded 80% dissolution efficiency while TGR 64 and TGR 65 recorded 75% and 78% dissolution efficiency respectively, for the stoichiometric ratio of 1:5.

Aβ42 = target: T2, Aβ42 (Homo sapiens, UniProt P05067); experiment: ThT binding assay, inhibition of Aβ42 fibrillar assembly; type: biochemical; conditions: for inhibitory effect on Aβ42 aggregation (ThT NFI at 482 nm): 1:1 molar ratio, 10 µM Aβ42, 10 µM inhibitor, 72 h; for decrease in the formation of Aβ aggregates: Aβ42/inhibitor 1:1, Aβ42 10 µM; for decrease in the formation of Aβ aggregates / Aβ aggregation decreased to: third day of incubation
T2 construct: commercially available β-amyloid peptide (1-42), human; purchased marck (so in the source) PP69-.025 mg
Method: as §1
Initially, the ability of the prepared NMI compounds, TGR63-68 to inhibit Aβ42 fibrillar assembly at 1:1 molar ratio with Aβ42 fibrils was evaluated using thioflavin (ThT) binding assay. 10 µM of Aβ42 fibrils in the absence (Ctrl) and the presence of 10 µM of inhibitors individually were incubated for 72 h. A normalized data for fluorescence intensity (NFI) of ThT at 482 nm (λex = 442 nm) was measured as represented in FIG. 1(a).
as §2

T2 sequence (P05067 672-713 limits assumed): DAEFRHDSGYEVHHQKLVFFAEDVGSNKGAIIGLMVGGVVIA
T1 sequence (P05067 672-713 limits assumed): as above

| decrease in the formation of α-Syn aggregates (α-Syn; α-Syn:inhibitor 1:1, α-Syn 100 µM) | α-Syn aggregation decreased to (α-Syn; α-Syn:inhibitor 1:2, α-Syn 100 µM) [%] | α-Syn aggregation decreased to (α-Syn; α-Syn:inhibitor 1:5, α-Syn 100 µM) [%] | dissolution efficiency ([1]; Aβ42/inhibitor 1:1, Aβ42 10 µM) | dissolution efficiency ([1]; Aβ42/inhibitor 1:2, Aβ42 10 µM) | dissolution efficiency ([1]; Aβ42/inhibitor 1:5, Aβ42 10 µM) [%] | inhibitory effect on Aβ42 aggregation (ThT NFI at 482 nm) (Aβ42) | decrease in the formation of Aβ aggregates (Aβ42) | Aβ aggregation decreased to (Aβ42; Aβ42/inhibitor 1:2, Aβ42 10 µM) [%] | Aβ aggregation decreased to (Aβ42; Aβ42/inhibitor 1:5, Aβ42 10 µM) [%] | SMILES | cell viability (PC12 cells; PC12 cells, Aβ42 20 µM + compound 40 µM, 24 h, Aβ42 alone 54%, untreated 100%) [%] | viability at 40 µM (PC12 cells; Aβ42 alone 54%, untreated 100%) [%] | enhancement in the viability of cells from Aβ toxicity (PC12 cells; PC12 cells) |
| --- | --- | --- | --- | --- | --- | --- | --- | --- | --- | --- | --- | --- | --- |
| – | – | – | – | – | – | ~ 10% | – | – | – | C[N+](C)(C)CCN1C(=O)c2cccc3cccc(c23)C1=O [TGR66, 2-(1,3-dioxo-1H-benzo[de]isoquinolin-2(3H)-yl)-N,N,N-trimethylethan-1-aminium] | – | – | ~ 26% |
| – | – | – | – | – | – | ~7% | – | – | – | CN(C)c1ccc2c3c(cccc13)C(=O)N(CC[N+](C)(C)C)C2=O [TGR67, 2-(6-(dimethylamino)-1,3-dioxo-1H-benzo[de]isoquinolin-2(3H)-yl)-N,N,N-trimethylethan-1-aminium] | – | – | ~22% |
| – | – | – | – | – | – | ~5% | – | – | – | C[N+](C)(C)CCN1C(=O)c2cccc3c(C#Cc4ccccc4)ccc(c23)C1=O [TGR68, 2-(1,3-dioxo-6-(phenylethynyl)-1H-benzo[de]isoquinolin-2(3H)-yl)-N,N,N-trimethylethan-1-aminium] | – | – | ~8% |

The next lines start with the molecule.

| SMILES | decrease in the formation of α-Syn aggregates (α-Syn; α-Syn:inhibitor 1:1, α-Syn 100 µM) | α-Syn aggregation decreased to (α-Syn; α-Syn:inhibitor 1:2, α-Syn 100 µM) [%] | α-Syn aggregation decreased to (α-Syn; α-Syn:inhibitor 1:5, α-Syn 100 µM) [%] | dissolution efficiency ([1]; Aβ42/inhibitor 1:1, Aβ42 10 µM) | dissolution efficiency ([1]; Aβ42/inhibitor 1:2, Aβ42 10 µM) | dissolution efficiency ([1]; Aβ42/inhibitor 1:5, Aβ42 10 µM) [%] | inhibitory effect on Aβ42 aggregation (ThT NFI at 482 nm) (Aβ42) | decrease in the formation of Aβ aggregates (Aβ42) | Aβ aggregation decreased to (Aβ42; Aβ42/inhibitor 1:2, Aβ42 10 µM) [%] | Aβ aggregation decreased to (Aβ42; Aβ42/inhibitor 1:5, Aβ42 10 µM) [%] | cell viability (PC12 cells; PC12 cells, Aβ42 20 µM + compound 40 µM, 24 h, Aβ42 alone 54%, untreated 100%) [%] | viability at 40 µM (PC12 cells; Aβ42 alone 54%, untreated 100%) [%] | enhancement in the viability of cells from Aβ toxicity (PC12 cells; PC12 cells) |
| --- | --- | --- | --- | --- | --- | --- | --- | --- | --- | --- | --- | --- | --- |
| CN(C)c1ccc(C#Cc2ccc3c4c(cccc24)C(=O)N(CCN)C3=O)cc1 [TGR64, 2-(2-aminoethyl)-6-((4-(dimethylamino)phenyl)ethynyl)-1H-benzo[de]isoquinoline-1,3(2H)-dione] | ~ 54% | 72 | 77 | ~ 35% | ~ 50% | 75 | ~38% | ~ 50% | 75 | 90 | 76 | 78 | – |
| CN(C)c1ccc(C#Cc2ccc3c4c(cccc24)C(=O)N(CCOCCO)C3=O)cc1 [TGR65, 6-((4-(dimethylamino)phenyl)ethynyl)-2-(2-(2-hydroxyethoxy)ethyl)-1H-benzo[de]isoquinoline-1,3(2H)-dione] | – | – | – | ~ 35% | ~ 50% | 78 | ~25% | ~ 50% | 75 | 90 | – | 62 | – |
